From patent US6613931B1 (priority 1999, dated 2003)

Columns and labels:
Lemna paucicostata = assay: Herbicidal action: growth inhibition of duck weed (Lemna); format: in vivo; conditions: Lemna aequinoctialis, increase in leaf area after 8-10 days, 25° C., permanent light, read-out: Growth inhibition (% relative to the control)
Method: The herbicidal action of the compounds according to the invention is investigated using the representative test model below. The effect of the test substances on the growth of duck weed is determined by the following method:
The duct weed Lemna paucicostata was grown under sterile conditions and 250 ml glass vessels containing 100 ml of inorganic nutrient solution and supplemented with 1% sucrose, as described by Grossmann et al., Pesticide Science 35, (1992), 283-289. At the beginning of the test, 150 μl of a solution of active compound in acetone (stock solution: 100-fold concentrated) were pipetted into Petri dishes (diameter 6 cm, height 1.5 cm; Greiner, Frickenhausen) containing 15 ml of nutrient solution. (without added sucrose). Only the solvent component of the active compound solution was added to the nutrient solution for the control tests. Then, 4 Lemna plants were introduced into each dish, the dishes were covered with lids and incubated under permanent light conditions at 25° C. After 8-10 days, the increase in leaf area was determined using an imaging apparatus (Imago, Compulog Computer Syst., Böblingen) as growth parameter, and this was used to calculate the growth inhibition as a percentage relative to the control.

Plasmopara viticola = assay: Fungicidal action: activity against Plasmopara viticola on grapevines (persistency); format: in vivo; conditions: grapevines c.v. Müller-Thurgau, inoculated 7 days after spraying, undersides of leaves assessed visually, untreated control 90
Description: Activity Against Plasmopara viticola
Leaves of potted grapevines c.v. “Müller-Thurgau” were sprayed to run off point with an aqueous preparation of active compound which had been prepared using a stock solution comprising 10% of active compound, 63% of cyclohexanone and 27% of emulsifier. In order to be able to assess the persistency of the substances, the plants were kept for 7 days in a greenhouse after the spray coating had dried on. Only then were the leaves inoculated with an aqueous zoospore suspension of Plasmopara viticola. The grapevines were then initially kept in a water vapor-saturated chamber at 24° C. for 48 hours and then in a greenhouse at 20 and 30° C. for 5 days. After this period of time, the plants were once more kept in a humid chamber for 16 hours to promote sporangiophore eruption. The extent of the infection on the undersides of the leaves was then determined visually.

SMILES | inhibition at 1 µM (Lemna paucicostata; concentration 1 μmolar) | inhibition at 10 µM (Lemna paucicostata; concentration 10 μmolar) | inhibition at 100 µM (Lemna paucicostata; concentration 100 μmolar) | % infection of the leaves after application of an aqueous preparation containing 250 ppm of active compound (Plasmopara viticola)
N#CC(C(=O)Nc1ccc(Cl)c(Cl)c1)c1ccccc1 (stereo not shown) [A, N-(3,4-dichlorophenyl)-2-cyano-2-phenylacetamide] | 40% | 93% | 100% | –
N#CC(C(=O)Nc1cccc(Cl)c1)c1ccccc1 (stereo not shown) [No. 2, N-(3-chlorophenyl)-2-cyano-2-phenylacetamide] | – | – | – | 0%
